Tests used:
Human neutrophils = assay: Superoxide anion generation in fMLF-stimulated neutrophils (ferricytochrome c reduction); format: cell-based; conditions: 1 μM, 3 μM and 10 μM; fMLF (0.1 μM)/cytochalasin B (1 μg/ml) stimulated; p<0.001 vs control; n=6; FIG. 2
Experimental: The informed consent to participate which was approved by the Institutional Review Board are signed by the donors. 50 mL of blood was collected from the median cubital vein of each donor by sterile vacutainer, and was used to isolate neutrophils for the following experiments. Human neutrophils (isolated from whole blood of donors) were incubated with DMSO (as solvent, marked as “−” in the groups at X-axis in FIGS. 2A and 2B) or Ribociclib (0.3-10 μM) for 5 minutes, and then stimulated the neutrophils with or without fMLF (0.1 μM)/cytochalasin B (CB, 1 μg/ml) for another 10 minutes to activate the neutrophils. The absorbance (OD550) of the reaction mixture was then measured by a spectrophotometer at OD 550 nm. The reading of OD550 is used to detect the reduction of ferricytochrome c, which indicates the amount of superoxide anion. Cytochalasin B was sold by Sigma-Aldrich, catalog number #2506; fMLF was sold by Sigma-Aldrich, catalog number #454454; model number of the spectrophotometer is HITACHI U-3010.

PDE4A = molecular target: T1, PDE4A (Homo sapiens, UniProt P27815); assay: PDE enzymatic activity, HTRF cAMP dynamic test; format: biochemical; conditions: 0.1 μM, 0.3 μM, 1 μM, 3 μM and 10 μM; compared with DMSO control; n=6; FIG. 1A
T1 construct: purchased BPS bioscience
T1 sequence (P27815 whole entry): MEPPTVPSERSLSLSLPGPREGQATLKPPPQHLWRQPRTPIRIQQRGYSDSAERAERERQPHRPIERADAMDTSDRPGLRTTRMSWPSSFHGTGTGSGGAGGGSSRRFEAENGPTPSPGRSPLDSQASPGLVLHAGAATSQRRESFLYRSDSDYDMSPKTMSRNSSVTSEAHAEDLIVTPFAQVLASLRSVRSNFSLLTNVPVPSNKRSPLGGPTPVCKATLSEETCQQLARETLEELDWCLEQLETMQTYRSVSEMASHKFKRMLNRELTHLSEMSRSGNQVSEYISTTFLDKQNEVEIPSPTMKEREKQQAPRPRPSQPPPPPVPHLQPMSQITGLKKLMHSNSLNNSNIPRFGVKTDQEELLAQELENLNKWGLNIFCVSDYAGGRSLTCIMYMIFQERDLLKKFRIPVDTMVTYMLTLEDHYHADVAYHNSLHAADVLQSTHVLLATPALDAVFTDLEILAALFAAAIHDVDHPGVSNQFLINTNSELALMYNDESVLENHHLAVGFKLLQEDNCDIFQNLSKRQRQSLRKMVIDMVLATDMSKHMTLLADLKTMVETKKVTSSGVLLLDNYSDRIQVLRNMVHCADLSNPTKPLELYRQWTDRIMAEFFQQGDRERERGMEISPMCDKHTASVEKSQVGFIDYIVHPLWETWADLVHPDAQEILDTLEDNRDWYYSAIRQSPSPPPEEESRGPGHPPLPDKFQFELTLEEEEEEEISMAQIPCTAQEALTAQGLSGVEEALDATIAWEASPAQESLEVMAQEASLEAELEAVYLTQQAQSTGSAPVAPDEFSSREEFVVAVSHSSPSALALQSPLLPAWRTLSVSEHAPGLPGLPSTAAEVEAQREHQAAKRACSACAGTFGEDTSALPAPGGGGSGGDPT
Experimental: (§1) Enzymatic activities of PDE subtypes were analyzed according to the user manual of HTRF® package insert cAMP dynamic tests (Cisbio bioassays, catalog number 62AM4PEB). Ribociclib was dissolved in DMSO (as solvent) and then added to PDE assay buffer which contains PDE4A, PDE4B, PDE4C, PDE4D, PDE3B or PDE7A (sold by BPS bioscience). The final concentration of Ribociclib was 0.1 to 30 μM. Then, the mixtures were incubated for 10 minutes at 37° C. PDE assay buffer which was added by DMSO (solvent, marked as “−” in FIGS. 1A-1F) instead of Ribociclib was as a control in this experiment. 60 nM of cAMP was added to each reagent and then incubated for 45 minutes at 37° C. After incubation, cAMP-d2 and anti-cAMP-cryptate were added to each reagent and react at room temperature for 1 hour away from light. Finally, the reagents were quantified by the luminometer (TECAN infinite 200 Pro) to detect enzymatic activities of PDE subtypes.

PDE4C = molecular target: T2, PDE4C (Homo sapiens, UniProt Q08493); assay: PDE enzymatic activity, HTRF cAMP dynamic test; format: biochemical; conditions: 3 μM, 10 μM and 30 μM; compared with DMSO control; n=6; FIG. 1C
T2 construct: purchased BPS bioscience
T2 sequence (Q08493 whole entry): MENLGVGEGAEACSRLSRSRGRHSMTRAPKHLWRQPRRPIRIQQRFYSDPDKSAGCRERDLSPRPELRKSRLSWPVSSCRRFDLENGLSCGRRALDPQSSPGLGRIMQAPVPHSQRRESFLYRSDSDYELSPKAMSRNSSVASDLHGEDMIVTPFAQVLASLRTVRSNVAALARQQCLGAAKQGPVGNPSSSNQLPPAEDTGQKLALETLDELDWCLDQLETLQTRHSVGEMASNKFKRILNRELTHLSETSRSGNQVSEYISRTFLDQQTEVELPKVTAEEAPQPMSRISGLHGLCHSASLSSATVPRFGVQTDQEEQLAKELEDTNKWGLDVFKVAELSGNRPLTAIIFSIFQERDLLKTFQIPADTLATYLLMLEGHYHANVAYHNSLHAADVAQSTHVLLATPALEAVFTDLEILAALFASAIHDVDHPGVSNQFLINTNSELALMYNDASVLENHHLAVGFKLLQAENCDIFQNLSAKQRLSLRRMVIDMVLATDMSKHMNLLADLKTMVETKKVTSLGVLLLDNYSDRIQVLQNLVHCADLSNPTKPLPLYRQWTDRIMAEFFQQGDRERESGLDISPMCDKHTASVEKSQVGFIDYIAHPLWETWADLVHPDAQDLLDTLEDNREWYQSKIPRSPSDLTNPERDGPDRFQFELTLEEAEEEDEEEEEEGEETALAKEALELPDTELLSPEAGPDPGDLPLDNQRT
Experimental: as §1

PDE3B = molecular target: T3, PDE3B (Homo sapiens, UniProt Q13370); assay: PDE enzymatic activity, HTRF cAMP dynamic test; format: biochemical; conditions: 0.1 to 30 μM; FIG. 1E
T3 construct: purchased BPS bioscience
T3 sequence (Q13370 whole entry): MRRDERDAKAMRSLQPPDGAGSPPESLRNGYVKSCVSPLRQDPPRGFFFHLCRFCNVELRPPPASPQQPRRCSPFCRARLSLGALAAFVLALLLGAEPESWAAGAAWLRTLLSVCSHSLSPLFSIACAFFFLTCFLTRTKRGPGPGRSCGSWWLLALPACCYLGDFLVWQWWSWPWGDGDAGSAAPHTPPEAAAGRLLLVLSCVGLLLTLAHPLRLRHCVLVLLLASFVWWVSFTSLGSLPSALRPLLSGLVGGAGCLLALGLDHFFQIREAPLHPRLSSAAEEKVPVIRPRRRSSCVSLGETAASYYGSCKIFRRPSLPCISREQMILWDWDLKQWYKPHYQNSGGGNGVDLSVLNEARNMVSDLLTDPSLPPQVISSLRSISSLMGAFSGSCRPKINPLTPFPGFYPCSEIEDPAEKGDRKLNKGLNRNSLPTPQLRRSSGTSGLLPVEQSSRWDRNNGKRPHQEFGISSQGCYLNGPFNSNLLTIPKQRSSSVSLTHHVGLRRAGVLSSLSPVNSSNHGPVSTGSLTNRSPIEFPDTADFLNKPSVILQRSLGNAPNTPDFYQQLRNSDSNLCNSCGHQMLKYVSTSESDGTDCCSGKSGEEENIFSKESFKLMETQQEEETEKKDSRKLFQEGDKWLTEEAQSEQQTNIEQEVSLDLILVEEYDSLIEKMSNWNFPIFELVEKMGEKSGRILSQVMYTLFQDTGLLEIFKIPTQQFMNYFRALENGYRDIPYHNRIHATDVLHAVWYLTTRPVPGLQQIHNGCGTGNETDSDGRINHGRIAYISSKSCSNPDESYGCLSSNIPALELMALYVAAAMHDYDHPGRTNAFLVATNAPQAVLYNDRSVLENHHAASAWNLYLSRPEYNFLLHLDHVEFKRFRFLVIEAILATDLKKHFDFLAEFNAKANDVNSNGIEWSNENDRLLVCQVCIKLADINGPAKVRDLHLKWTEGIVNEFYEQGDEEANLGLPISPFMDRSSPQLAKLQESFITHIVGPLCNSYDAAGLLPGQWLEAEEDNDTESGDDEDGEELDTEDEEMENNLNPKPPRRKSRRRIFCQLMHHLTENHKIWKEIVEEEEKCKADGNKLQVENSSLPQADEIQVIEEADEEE
Experimental: as §1

PDE7A = molecular target: T4, PDE7A (Homo sapiens, UniProt Q13946); assay: PDE enzymatic activity, HTRF cAMP dynamic test; format: biochemical; conditions: 0.1 to 30 μM; FIG. 1F
T4 construct: purchased BPS bioscience
T4 sequence (Q13946 whole entry): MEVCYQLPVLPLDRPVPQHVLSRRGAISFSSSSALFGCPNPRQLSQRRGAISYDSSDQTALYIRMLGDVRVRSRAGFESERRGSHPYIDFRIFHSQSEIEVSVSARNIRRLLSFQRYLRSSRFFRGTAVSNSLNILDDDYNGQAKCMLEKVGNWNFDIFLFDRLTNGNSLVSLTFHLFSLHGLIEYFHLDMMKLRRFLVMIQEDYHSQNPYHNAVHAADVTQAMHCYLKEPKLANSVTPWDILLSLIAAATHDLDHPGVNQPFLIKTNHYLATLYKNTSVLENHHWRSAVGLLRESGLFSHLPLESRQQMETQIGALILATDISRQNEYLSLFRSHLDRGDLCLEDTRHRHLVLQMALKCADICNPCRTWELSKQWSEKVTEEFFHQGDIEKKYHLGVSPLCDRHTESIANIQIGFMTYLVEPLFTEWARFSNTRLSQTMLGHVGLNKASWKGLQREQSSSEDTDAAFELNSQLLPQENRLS
Experimental: as §1

PDE4D = molecular target: T5, PDE4D (Homo sapiens, UniProt Q08499); assay: PDE enzymatic activity, HTRF cAMP dynamic test; format: biochemical; conditions: 10 μM and 30 μM; compared with DMSO control; n=6; FIG. 1D
T5 construct: purchased BPS bioscience
T5 sequence (Q08499 whole entry): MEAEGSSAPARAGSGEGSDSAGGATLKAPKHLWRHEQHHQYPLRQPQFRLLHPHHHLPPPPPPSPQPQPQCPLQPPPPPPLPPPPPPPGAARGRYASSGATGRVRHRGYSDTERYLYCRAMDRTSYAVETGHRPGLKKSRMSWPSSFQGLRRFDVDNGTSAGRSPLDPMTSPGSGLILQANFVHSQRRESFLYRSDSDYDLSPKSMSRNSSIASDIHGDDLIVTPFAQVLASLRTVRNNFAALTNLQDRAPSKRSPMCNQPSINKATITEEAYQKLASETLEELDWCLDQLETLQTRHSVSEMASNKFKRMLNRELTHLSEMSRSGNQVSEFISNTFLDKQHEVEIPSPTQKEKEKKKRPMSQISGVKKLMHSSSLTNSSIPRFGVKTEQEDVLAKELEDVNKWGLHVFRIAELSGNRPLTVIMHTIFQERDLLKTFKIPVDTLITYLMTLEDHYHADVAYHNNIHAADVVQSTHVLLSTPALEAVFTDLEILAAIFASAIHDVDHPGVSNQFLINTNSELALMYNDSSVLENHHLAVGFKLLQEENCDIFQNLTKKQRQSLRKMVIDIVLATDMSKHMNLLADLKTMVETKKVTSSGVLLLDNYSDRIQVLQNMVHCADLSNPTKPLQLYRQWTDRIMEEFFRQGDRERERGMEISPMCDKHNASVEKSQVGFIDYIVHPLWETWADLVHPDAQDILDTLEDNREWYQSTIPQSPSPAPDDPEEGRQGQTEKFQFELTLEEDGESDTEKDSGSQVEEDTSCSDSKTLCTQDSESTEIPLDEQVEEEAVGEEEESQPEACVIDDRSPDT
Experimental: as §1

PDE4B = molecular target: T6, PDE4B (Homo sapiens, UniProt Q07343); assay: PDE enzymatic activity, HTRF cAMP dynamic test; format: biochemical; conditions: 3 μM, 10 μM and 30 μM; compared with DMSO control; n=6; FIG. 1B
T6 construct: purchased BPS bioscience
T6 sequence (Q07343 whole entry): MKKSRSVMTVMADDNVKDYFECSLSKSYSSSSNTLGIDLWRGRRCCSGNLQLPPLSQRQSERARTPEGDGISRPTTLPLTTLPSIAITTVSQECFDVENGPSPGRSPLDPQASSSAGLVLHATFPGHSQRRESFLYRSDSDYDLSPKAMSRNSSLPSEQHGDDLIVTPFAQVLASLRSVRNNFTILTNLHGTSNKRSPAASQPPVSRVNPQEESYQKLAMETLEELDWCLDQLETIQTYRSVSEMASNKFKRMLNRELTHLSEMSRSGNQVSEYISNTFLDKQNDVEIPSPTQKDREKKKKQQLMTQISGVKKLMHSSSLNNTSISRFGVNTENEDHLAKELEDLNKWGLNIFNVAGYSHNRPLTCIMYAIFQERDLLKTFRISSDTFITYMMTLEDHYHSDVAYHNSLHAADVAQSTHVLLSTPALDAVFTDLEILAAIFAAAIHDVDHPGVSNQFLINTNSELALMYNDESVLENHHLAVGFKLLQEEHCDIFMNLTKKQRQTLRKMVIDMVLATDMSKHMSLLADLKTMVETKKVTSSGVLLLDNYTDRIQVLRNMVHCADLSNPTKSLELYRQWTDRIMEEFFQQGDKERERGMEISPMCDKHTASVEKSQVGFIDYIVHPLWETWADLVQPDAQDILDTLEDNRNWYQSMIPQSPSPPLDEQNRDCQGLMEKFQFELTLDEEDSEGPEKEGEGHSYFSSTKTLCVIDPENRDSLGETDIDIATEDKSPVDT
Experimental: as §1

IMQ-treated mice = assay: Psoriasis-like symptoms in IMQ-treated mice; format: in vivo, BALB/c mice; conditions: applied on back skin once per day for 5 days before IMQ, FIG. 3
Experimental: 250 μg or 500 μg of Ribociclib was dissolved in 50 μl of 0.5% (w/v) methylcellulose 400 solution to make a pharmaceutical composition. The Ribociclib concentration of the pharmaceutical composition was 250 μg/50 μl or 500 μg/50 μl and used in the subsequent animal experimental examples 4 and 5. Male BALB/c mice (7-9 weeks of age, the body weight of each mouse is about 25 g) were divided into different groups, and each group has 6 mice. Each mouse was epilation on the back and then treated with 50 μl of solvent (0.5% methylcellulose 400) or 50 μl of the pharmaceutical composition prepared in example 3 (the concentration of Ribociclib is 10 or 20 mg/kg of body weight) by applying on the nude back skin before topical treatment of imiquimod (IMQ, sold by 3M Health Care Limited). And then applying with or without IMQ on the nude back skin of mice to cause psoriasis-like symptom. Each treatment was given once per day for 5 consecutive days. The mice which applying solvent and IMQ is played as the control. The mice which merely applying solvent is played as the blank.

CN(C)C(=O)c1cc2cnc(Nc3ccc(N4CCNCC4)cn3)nc2n1C1CCCC1 [Ribociclib, 7-Cyclopentyl-N,N-dimethyl-2-{[5-(1-piperazinyl)-2-pyridinyl]amino}-7H-pyrrolo[2,3-d]pyrimidine-6-carboxamide]
generation of superoxide anion (Human neutrophils): significantly restrict the generation of superoxide anion | PDE4A activity (PDE4A): significantly inhibit PDE4A activity | PDE4C activity (PDE4C): significantly inhibit PDE4C activity | PDE3B activity (PDE3B): would not inhibit | PDE7A activity (PDE7A): would not inhibit | PDE4D activity (PDE4D): significantly inhibit PDE4D activity | PDE4B activity (PDE4B): significantly inhibit PDE4B activity | psoriasis-like symptoms (IMQ-treated mice; 10 mg/kg of the body weight): can improve or cure the psoriasis-like symptoms | psoriasis-like symptoms (IMQ-treated mice; 20 mg/kg of the body weight): can improve or cure the psoriasis-like symptoms
